Test results taken from patent US10047071B1, “Dihydropyrimidinone derivatives” (KING SAUD UNIVERSITY, priority 2018, dated 2018).

Row | melting point [°C] | Structure (SMILES)
1 | 158 to 160 | O=C1NC=C(C(=O)c2ccc(-n3ccnc3)cc2)C(c2ccc([N+](=O)[O-])cc2)N1 (centres unmarked) [Compound 3, 5-[4-(1H-imidazol-1-yl)benzoyl]-4-(4-nitrophenyl)-3,4-dihydropyrimidin-2(1H)-one]
2 | 140 to 142 | COc1ccccc1C1NC(=O)NC=C1C(=O)c1ccc(-n2ccnc2)cc1 (centres unmarked) [Compound 7, 5-[4-(1H-imidazol-1-yl)benzoyl]-4-(2-methoxyphenyl)-3,4-dihydropyrimidin-2(1H)-one]
3 | 138 to 140 | O=C1NC=C(C(=O)c2ccc(-n3ccnc3)cc2)C(c2ccc(Cl)cc2Cl)N1 (centres unmarked) [Compound 6, 4-(2,4-dichlorophenyl)-5-[4-(1H-imidazol-1-yl)benzoyl]-3,4-dihydropyrimidin-2(1H)-one]
4 | 190 to 192 | O=C1NC=C(C(=O)c2ccc(-n3ccnc3)cc2)C(c2cccc(O)c2)N1 (centres unmarked) [Compound 9, 4-(3-hydroxyphenyl)-5-[4-(1H-imidazol-1-yl)benzoyl]-3,4-dihydropyrimidin-2(1H)-one]
5 | 155 to 157 | O=C1NC=C(C(=O)c2ccc(-n3ccnc3)cc2)C(c2ccccc2[N+](=O)[O-])N1 (centres unmarked) [Compound 2, 5-[4-(1H-imidazol-1-yl)benzoyl]-4-(2-nitrophenyl)-3,4-dihydropyrimidin-2(1H)-one]
6 | 130 to 132 | COc1cc(OC)c(C2NC(=O)NC=C2C(=O)c2ccc(-n3ccnc3)cc2)c(OC)c1 (centres unmarked) [Compound 14, 5-[4-(1H-imidazol-1-yl)benzoyl]-4-(2,4,6-trimethoxyphenyl)-3,4-dihydropyrimidin-2(1H)-one]
7 | 138 to 140 | COc1ccc(C2NC(=O)NC=C2C(=O)c2ccc(-n3ccnc3)cc2)c(OC)c1OC (centres unmarked) [Compound 12, 5-[4-(1H-imidazol-1-yl)benzoyl]-4-(2,3,4-trimethoxyphenyl)-3,4-dihydropyrimidin-2(1H)-one]
8 | 180 to 182 | O=C1NC=C(C(=O)c2ccc(-n3ccnc3)cc2)C(c2ccc(Cl)cc2)N1 (centres unmarked) [Compound 5, 4-(4-chlorophenyl)-5-[4-(1H-imidazol-1-yl)benzoyl]-3,4-dihydropyrimidin-2(1H)-one]
9 | 160 to 162 | O=C1NC=C(C(=O)c2ccc(-n3ccnc3)cc2)C(c2cccc([N+](=O)[O-])c2)N1 (centres unmarked) [Compound 4, 5-[4-(1H-imidazol-1-yl)benzoyl]-4-(3-nitrophenyl)-3,4-dihydropyrimidin-2(1H)-one]
10 | 136 to 138 | COc1ccc(C2NC(=O)NC=C2C(=O)c2ccc(-n3ccnc3)cc2)cc1OC (centres unmarked) [Compound 15, 5-[4-(1H-imidazol-1-yl)benzoyl]-4-(3,4-dimethoxyphenyl)-3,4-dihydropyrimidin-2(1H)-one]
11 | 135 to 137 | COc1cc(OC)c(C2NC(=O)NC=C2C(=O)c2ccc(-n3ccnc3)cc2)cc1OC (centres unmarked) [Compound 11, 5-[4-(1H-imidazol-1-yl)benzoyl]-4-(2,4,5-trimethoxyphenyl)-3,4-dihydropyrimidin-2(1H)-one]
12 | 125 to 127 | COc1cccc(C2NC(=O)NC=C2C(=O)c2ccc(-n3ccnc3)cc2)c1 (centres unmarked) [Compound 10, 5-[4-(1H-imidazol-1-yl)benzoyl]-4-(3-methoxyphenyl)-3,4-dihydropyrimidin-2(1H)-one]
13 | 130 to 132 | O=C1NC=C(C(=O)c2ccc(-n3ccnc3)cc2)C(c2ccccc2)N1 (centres unmarked) [Compound 1, 5-[4-(1H-imidazol-1-yl)benzoyl]-4-phenyl-3,4-dihydropyrimidin-2(1H)-one]
14 | 128 to 130 | COc1cc(C2NC(=O)NC=C2C(=O)c2ccc(-n3ccnc3)cc2)cc(OC)c1OC (centres unmarked) [Compound 13, 5-[4-(1H-imidazol-1-yl)benzoyl]-4-(3,4,5-trimethoxyphenyl)-3,4-dihydropyrimidin-2(1H)-one]
